# In paper PMC6332427, “Drug Discovery of Host CLK1 Inhibitors for Influenza Treatment” (Molecules, 2015):
# What was measured:
# CLK1 = details: cited from earlier work
# [1] = test system: influenza virus A/PR/8/34 (H1N1); details: 24 h, mean ± SD
smiles,measurement,setting,value
"CCN1/C(=C/C(C)=O)Sc2ccc(OC)cc21 [TG003, reference compound]",IC50,CLK1,[…]
same,Post-Treatment Assay EC50,"[1]; H1N1 (MOI 0.01) incubated with MDCK cells 2 h, then compound",3.56 ± 1.47 µg/mL
same,Pre-Treatment Assay EC50,[1]; H1N1 (MOI 0.01) pre-incubated with compound 2 h at 37 °C before addition to MDCK cells,5.09 ± 0.78 µg/mL
same,Simultaneous Treatment Assay EC50,[1]; compound added along with H1N1 (MOI 0.01) to MDCK cells,15.75 ± 3.49 µg/mL
